Measurements taken from patent US20080114007A1 (priority 2006, published 2008).

Molecular target: CSF-1R (Homo sapiens, UniProt P07333)
Assay: Peptide (non-phosphorylated) assay, fluorescence polarization competition immunoassay
Assay type: biochemical
Conditions: 0.7 nM CSF-1R, 308 μM SYEGNSYTFIDPTQ peptide, 1 mM ATP, 80 min; mean of at least three determinations; read-out: c-fms Peptide IC50
Protocol: The kinase reaction was initiated by adding 1 μL of 10 mM ATP in assay buffer. […] Positive and negative control wells were included on each plate, where 4% DMSO in assay buffer was substituted for the compound; in addition, positive control wells received 1.2 μL of 50 mM EDTA before the start of the reaction.
The plates were covered and incubated at room temperature for 80 min. Reactions were stopped by addition of 1.2 μL of 50 mM EDTA. Each well then received 10 μL of a 1:1:3 mixture of 10× anti-phosphotyrosine antibody, 10×PTK green tracer, and FP dilution buffer, respectively (Cat. # P2837, Invitrogen, Carlsbad, Calif.). The plates were covered, incubated for 30 min at room temperature, and the fluorescence polarization was read on an Analyst plate reader (Molecular Devices).

CSF-1R, sequence (P07333 20-972): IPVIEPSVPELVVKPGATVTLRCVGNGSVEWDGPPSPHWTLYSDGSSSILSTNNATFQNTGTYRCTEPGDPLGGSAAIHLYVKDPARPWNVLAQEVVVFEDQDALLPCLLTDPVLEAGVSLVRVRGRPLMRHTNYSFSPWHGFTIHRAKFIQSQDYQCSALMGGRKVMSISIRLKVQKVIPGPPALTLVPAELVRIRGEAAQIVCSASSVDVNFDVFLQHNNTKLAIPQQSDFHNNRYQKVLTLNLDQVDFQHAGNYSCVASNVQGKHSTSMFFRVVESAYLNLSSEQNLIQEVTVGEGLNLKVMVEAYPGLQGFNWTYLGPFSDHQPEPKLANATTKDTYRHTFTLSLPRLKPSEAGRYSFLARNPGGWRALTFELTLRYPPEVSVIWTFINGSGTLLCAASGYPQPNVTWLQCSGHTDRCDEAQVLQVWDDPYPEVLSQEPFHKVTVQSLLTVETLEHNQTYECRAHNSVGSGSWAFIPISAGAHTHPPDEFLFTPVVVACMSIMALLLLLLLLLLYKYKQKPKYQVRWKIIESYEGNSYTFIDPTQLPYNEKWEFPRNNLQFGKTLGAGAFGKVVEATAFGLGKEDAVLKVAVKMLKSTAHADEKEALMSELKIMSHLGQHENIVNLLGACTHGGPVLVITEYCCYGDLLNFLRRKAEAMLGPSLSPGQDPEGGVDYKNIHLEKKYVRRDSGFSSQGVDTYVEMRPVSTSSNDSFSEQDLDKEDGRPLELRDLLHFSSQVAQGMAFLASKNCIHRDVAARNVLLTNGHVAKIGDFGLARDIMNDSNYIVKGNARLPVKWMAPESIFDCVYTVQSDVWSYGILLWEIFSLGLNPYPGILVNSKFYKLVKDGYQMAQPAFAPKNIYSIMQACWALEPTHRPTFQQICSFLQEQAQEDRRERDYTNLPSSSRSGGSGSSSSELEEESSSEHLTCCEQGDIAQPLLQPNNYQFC

| Structure (SMILES) | IC50 [nM] |
| --- | --- |
| CCc1ccc(-n2cc(C(=O)NOC)c(=O)c3cnc(Nc4ccc5c(c4)CNCC5)nc32)cc1 [Cpd 282, 8-(4-ethyl-phenyl)-5-oxo-2-(1,2,3,4-tetrahydro-isoquinolin-7-ylamino)-5,8-dihydro-pyrido[2,3-d]pyrimidine-6-carboxylic acid methoxy-amide] | 0.2 |
| CONC(=O)c1cn(-c2ccc3c(c2)CCC3)c2nc(Nc3ccc(C4CCN(CC(F)(F)C(F)(F)F)CC4)cc3)ncc2c1=O [Cpd 293, 8-indan-5-yl-5-oxo-2-{4-[1-(2,2,3,3,3-pentafluoro-propyl)-piperidin-4-yl]-phenylamino}-5,8-dihydro-pyrido[2,3-d]pyrimidine-6-carboxylic acid methoxy-amide] | 2.9 |
| CONC(=O)c1cn(C2CCCCC2)c2nc(Nc3ccc(C4CCN(C)CC4)cc3)ncc2c1=O [Cpd 140, 8-cyclohexyl-2-[4-(1-methyl-piperidin-4-yl)-phenylamino]-5-oxo-5,8-dihydro-pyrido[2,3-d]pyrimidine-6-carboxylic acid methoxy-amide] | 4.8 |
| CONC(=O)c1cn(-c2ccc3c(c2)CCC3)c2nc(Nc3ccc(CCC(=O)NS(C)(=O)=O)cc3)ncc2c1=O [Cpd 153, 8-indan-5-yl-2-[4-(3-methanesulfonylamino-3-oxo-propyl)-phenylamino]-5-oxo-5,8-dihydro-pyrido[2,3-d]pyrimidine-6-carboxylic acid methoxy-amide] | 3.2 |
| NC(=O)c1cn(-c2ccc3c(c2)CCC3)c2nc(Nc3ccc(CCN4CCCC4)cc3)ncc2c1=O [Cpd 5, 8-indan-5-yl-5-oxo-2-[4-(2-pyrrolidin-1-yl-ethyl)-phenylamino]-5,8-dihydro-pyrido[2,3-d]pyrimidine-6-carboxylic acid amide] | 1.5 |
| CONC(=O)c1cn(C2CCCCC2)c2nc(Nc3ccc(C4CCN(C(C)=O)CC4)cc3)ncc2c1=O [Cpd 28, 2-[4-(1-acetyl-piperidin-4-yl)-phenylamino]-8-cyclohexyl-5-oxo-5,8-dihydro-pyrido[2,3-d]pyrimidine-6-carboxylic acid methoxy-amide] | 2.2 |
| CONC(=O)c1cn(-c2ccc3c(c2)CCC3)c2nc(Nc3ccc(CCS(=O)(=O)NC(C)C)cc3)ncc2c1=O [Cpd 77, 8-indan-5-yl-2-[4-(2-isopropylsulfamoyl-ethyl)-phenylamino]-5-oxo-5,8-dihydro-pyrido[2,3-d]pyrimidine-6-carboxylic acid methoxy-amide] | 0.95 |
| CONC(=O)c1cn(C2CCCCC2)c2nc(Nc3ccc(N4CCCC4)cc3)ncc2c1=O [Cpd 10, 8-cyclohexyl-5-oxo-2-(4-pyrrolidin-1-yl-phenylamino)-5,8-dihydro-pyrido[2,3-d]pyrimidine-6-carboxylic acid methoxy-amide] | 2.1 |
| CONC(=O)c1cn(-c2ccc3c(c2)CCC3)c2nc(Nc3ccc([C@]4(O)CCN(C)C[C@H]4O)cc3)ncc2c1=O [Cpd 250, 2-{4-[(3R,4R)-(3,4-dihydroxy-1-methyl-piperidin-4-yl)]-phenylamino}-8-indan-5-yl-5-oxo-5,8-dihydro-pyrido[2,3-d]pyrimidine-6-carboxylic acid methoxy-amide] | 0.39 |
| CONC(=O)c1cn(C2CCCCC2)c2nc(Nc3ccc(CCN4CCOCC4)cc3)ncc2c1=O [Cpd 20, 8-cyclohexyl-2-[4-(2-morpholin-4-yl-ethyl)-phenylamino]-5-oxo-5,8-dihydro-pyrido[2,3-d]pyrimidine-6-carboxylic acid methoxy-amide] | 3 |
| CCc1ccc(-n2cc(C(=O)NOC)c(=O)c3cnc(Nc4ccc(CCN5CCCC5=O)cc4)nc32)cc1 [Cpd 54, 8-(4-ethyl-phenyl)-5-oxo-2-{4-[2-(2-oxo-pyrrolidin-1-yl)-ethyl]-phenylamino}-5,8-dihydro-pyrido[2,3-d]pyrimidine-6-carboxylic acid methoxy-amide] | 1.8 |

More lines, in order of falling IC50, values ahead:

| IC50 [nM] | Structure (SMILES) |
| --- | --- |
| 7 | CONC(=O)c1cn(-c2cnc3c(c2)CCC3)c2nc(Nc3ccc(C4CCN(C)CC4)cc3)ncc2c1=O [Cpd 225, 8-(6,7-dihydro-5H-[1]pyrindin-3-yl)-2-[4-(1-methyl-piperidin-4-yl)-phenylamino]-5-oxo-5,8-dihydro-pyrido[2,3-d]pyrimidine-6-carboxylic acid methoxy-amide] |
| 5.7 | NC(=O)c1cn(-c2ccc3c(c2)CCC3)c2nc(Nc3cccc(N4CCCC4)c3)ncc2c1=O [Cpd 125, 8-indan-5-yl-5-oxo-2-(3-pyrrolidin-1-yl-phenylamino)-5,8-dihydro-pyrido[2,3-d]pyrimidine-6-carboxylic acid amide] |
| 5.3 | CCc1ccc(-n2cc(C(=O)NOC)c(=O)c3cnc(Nc4ccc(OC5CCN(CC(F)(F)F)CC5)cc4)nc32)cc1 [Cpd 318, 8-(4-ethyl-phenyl)-5-oxo-2-{4-[1-(2,2,2-trifluoro-ethyl)-piperidin-4-yloxy]-phenylamino}-5,8-dihydro-pyrido[2,3-d]pyrimidine-6-carboxylic acid methoxy-amide] |
| 2.6 | CONC(=O)c1cn(-c2ccc3c(c2)CCC3)c2nc(Nc3ccc(CCN4CCN(CC(F)(F)F)CC4)cc3)ncc2c1=O [Cpd 149, 8-indan-5-yl-5-oxo-2-(4-{2-[4-(2,2,2-trifluoro-ethyl)-piperazin-1-yl]-ethyl}-phenylamino)-5,8-dihydro-pyrido[2,3-d]pyrimidine-6-carboxylic acid methoxy-amide] |
| 2.2 | CONC(=O)c1cn(-c2ccc3c(c2)CCC3)c2nc(Nc3ccc(C4CCN(CC(=O)O)CC4)cc3)ncc2c1=O [Cpd 219, {4-[4-(8-indan-5-yl-6-methoxycarbamoyl-5-oxo-5,8-dihydro-pyrido[2,3-d]pyrimidin-2-ylamino)-phenyl]-piperidin-1-yl}-acetic acid] |
| 1.8 | CONC(=O)c1cn(C2CCCCC2)c2nc(Nc3ccc(N4CC(C)NC(C)C4)cc3)ncc2c1=O (stereo not drawn) [Cpd 24, 8-cyclohexyl-2-[4-(3,5-dimethyl-piperazin-1-yl)-phenylamino]-5-oxo-5,8-dihydro-pyrido[2,3-d]pyrimidine-6-carboxylic acid methoxy-amide] |
| 1.5 | CONC(=O)c1cn(-c2ccc3c(c2)CCC3)c2nc(Nc3ccc(CCCN4CCN(C)CC4)cc3)ncc2c1=O [Cpd 151, 8-indan-5-yl-2-{4-[3-(4-methylpiperazin-1-yl)-propyl]-phenylamino}-5-oxo-5,8-dihydro-pyrido[2,3-d]pyrimidine-6-carboxylic acid methoxy-amide] |
| 1.4 | CCc1ccc(-n2cc(C(=O)NOC)c(=O)c3cnc(Nc4ccc(CC(=O)NN(C)C)cc4)nc32)cc1 [Cpd 105, 2-[4-(N′,N′-dimethyl-hydrazinocarbonylmethyl)-phenylamino]-8-(4-ethyl-phenyl)-5-oxo-5,8-dihydro-pyrido[2,3-d]pyrimidine-6-carboxylic acid methoxy-amide] |
| 1.3 | CCc1ccc(-n2cc(C(=O)NOC)c(=O)c3cnc(Nc4ccc5cc[nH]c5c4)nc32)cc1 [Cpd 286, 8-(4-ethyl-phenyl)-2-(1H-indol-6-ylamino)-5-oxo-5,8-dihydro-pyrido[2,3-d]pyrimidine-6-carboxylic acid methoxy-amide] |
| 0.88 | CONC(=O)c1cn(-c2ccc3c(c2)CCC3)c2nc(Nc3ccc(CCNC4CC5CCC4C5)cc3)ncc2c1=O (stereo not drawn) [Cpd 108, 2-{4-[2-(bicyclo[2.2.1]hept-2-ylamino)-ethyl]-phenylamino}-8-indan-5-yl-5-oxo-5,8-dihydro-pyrido[2,3-d]pyrimidine-6-carboxylic acid methoxy-amide] |
| 0.84 | CONC(=O)c1cn(-c2ccc3c(c2)CCC3)c2nc(Nc3ccc(CCN4CCC5(CC4)OCCCO5)cc3)ncc2c1=O [Cpd 73, 2-{4-[2-(1,5-dioxa-9-aza-spiro[5.5]undec-9-yl)-ethyl]-phenylamino}-8-indan-5-yl-5-oxo-5,8-dihydro-pyrido[2,3-d]pyrimidine-6-carboxylic acid methoxy-amide] |
| 0.64 | CONC(=O)c1cn(-c2ccc3c(c2)CCC3)c2nc(Nc3ccc(CCN(CCO)CCO)cc3)ncc2c1=O [Cpd 100, 2-(4-{2-[bis-(2-hydroxy-ethyl)-amino]-ethyl}-phenylamino)-8-indan-5-yl-5-oxo-5,8-dihydro-pyrido[2,3-d]pyrimidine-6-carboxylic acid methoxy-amide] |
| 0.64 | CCN1CCCCC1c1ccc(Nc2ncc3c(=O)c(C(=O)NOC)cn(-c4ccc5c(c4)CCC5)c3n2)cc1 (stereo not drawn) [Cpd 244, 2-[4-(1-ethyl-piperidin-2-yl)-phenylamino]-8-indan-5-yl-5-oxo-5,8-dihydro-pyrido[2,3-d]pyrimidine-6-carboxylic acid methoxy-amide] |
| 0.56 | CCN1CC[C@H](Oc2cccc(Nc3ncc4c(=O)c(C(=O)NOC)cn(-c5ccc6c(c5)CCC6)c4n3)c2)C1 [Cpd 263, 2-{3-[(3S)-(1-ethyl-pyrrolidin-3-yloxy)]-phenylamino}-8-indan-5-yl-5-oxo-5,8-dihydro-pyrido[2,3-d]pyrimidine-6-carboxylic acid methoxy-amide] |
| 0.4 | CCN1CCC(c2ccc(Nc3ncc4c(=O)c(C(=O)NOC)cn(C5CCC(C)(C)CC5)c4n3)cc2)CC1 [Cpd 208, 8-(4,4-dimethyl-cyclohexyl)-2-[4-(1-ethyl-piperidin-4-yl)-phenylamino]-5-oxo-5,8-dihydro-pyrido[2,3-d]pyrimidine-6-carboxylic acid methoxy-amide] |
| 0.12 | CCN1CCC(c2ccc(Nc3ncc4c(=O)c(C(=O)NOC)cn(-c5ccc6c(c5)CCC6)c4n3)cc2)CC1 [Cpd 155, 2-[4-(1-ethyl-piperidin-4-yl)-phenylamino]-8-indan-5-yl-5-oxo-5,8-dihydro-pyrido[2,3-d]pyrimidine-6-carboxylic acid methoxy-amide] |
